Source: patent US10213428B2, “(4-((3R,4R)-3-methoxytetrahydro-pyran-4-ylamino)piperidin-1-yl)(5-methyl-6-(((2R,6S)-6-(p-tolyl)tetrahydro-2H-pyran-2-yl)methylamino)pyrimidin-4-yl)methanone citrate” (Centrexion Therapeutics Corporation, priority 2015, dated 2019)

Legend:
[1] = In vitro plasma protein binding (equilibrium dialysis), rat; assay type: in vitro ADME; conditions: pH 7.4, dialysis 2 hours at 37° C., read-out: Fraction bound (converted)
Experimental: (§1) Dianorm Teflon dialysis cells (micro 0.2) are used. Each cell consists of a donor (i.e., buffer chamber) and an acceptor chamber (i.e., plasma chamber), separated by an ultrathin semipermeable membrane with a 5 kDa molecular weight cutoff. Stock solutions for each test compound are prepared in DMSO at 1 mM and diluted to a final concentration of 1.0 μM. Aliquots of 200 μL dialysis buffer (100 mM potassium phosphate, pH 7.4) are dispensed into the buffer chamber. Aliquots of 200 μL test compound dialysis solution are dispensed into the plasma chambers. Incubation is carried out for 2 hours under rotation at 37° C. Then, the dialysate is transferred into reaction tubes. The tubes for the buffer fraction contain 0.2 mL acetonitril/water (80/20 volume/volume). Aliquots of 25 μL of the plasma dialysate are transferred into deep well plates and mixed with 25 μL acetonitril/water (80/20 volume/volume), 25 μL buffer, 25 μL calibration solution and 25 μL Internal Standard solution. Protein precipitation is done by adding 200 μL acetonitrile. Aliquots of 50 μL of the buffer dialysate are transferred into deep well plates and mixed with 25 μL blank plasma, 25 μL Internal Standard solution and 200 μL acetonitril. Percent bound is calculated with the formula: % bound=(plasma concentration−buffer concentration/plasma concentration)×100.

plasma protein = assay: as above; assay type: in vitro ADME; conditions: 1.0 μM, dialysis 2 hours at 37° C.
Experimental: as §1

## CO[C@H]1COCC[C@H]1NC1CCN(C(=O)c2ncnc(NC[C@H]3CCC[C@@H](c4ccc(C)cc4)O3)c2C)CC1 [compound I, (4-((3R,4R)-3-methoxytetrahydro-pyran-4-ylamino)piperidin-1-yl)(5-methyl-6-(((2R,6S)-6-(p-tolyl)tetrahydro-2H-pyran-2-yl)methylamino)pyrimidin-4-yl)methanone]
[1]
  fraction unbound at 2 h, 1 μM: 0.311
Plasma protein
  Fraction unbound: 31.1%
